According to US20080095711A1, “Modulators of Pulmonary Hypertension” (priority 2006, published 2008):
Entries after “also recorded” stand apart in the source; their conditions may differ.

Experiments:
[1] = system: rabbit intralobar pulmonary arteries; experiment: Promotion of 5,6-EET induced vasoconstriction in rabbit intralobar pulmonary artery rings; settings: compound at 1 μM; rabbit PA rings
Description: To obtain the pulmonary arteries used in the study, adult New Zealand white rabbits (2.4-3.0 kg) were anesthetized with pentobarbital sodium (15 mg/kg iv) for 10 minutes after intramuscular administration of ketamine (8 mg/kg) and xylazine (2 mg/kg). A tracheostomy was performed and a tracheal cannula was inserted. The animals were ventilated via a fixed volume ventilator (Harvard) with room air (tidal volume: 8-10 ml/kg at 15 cycles/min). A catheter was inserted into a carotid artery for administration of heparin (1,000 units, iv) 10 minutes before exsanguination of the animal. After exsanguination, the lungs were removed for isolation of the pulmonary vessels. Intralobar, second order pulmonary arteries (PA) were obtained as described previously (Stephenson A. H., et al., American Journal of Physiology 284: H2153-H2161, 2003). […] Ring tension was measured from one of the support wires attached to an isometric force transducer (FT03, Grass) and recorded continuously on a polygraph (Grass). Each ring was placed under a basal (passive) tension (0.75 to 1.5 g) determined to result in a maximal contractile response to KCl (60 mM). […]

[2] = system: isolated perfused rabbit lungs; experiment: Hypoxia-induced pulmonary vasoconstriction in isolated perfused rabbit lungs (with L-NAME); settings: compound at 10 μM in perfusate, L-NAME 100 μM
Description: Adult New Zealand white rabbits were prepared as described in Example 2. After exsanguination was completed, a midsternal thoracotomy was performed, and the heart and lungs were removed en bloc. Fluid-filled catheters were placed into the PA and the left atrium for lung perfusion and pressure measurements. The isolated lungs were ventilated at 10 ml/kg with 26-30 breaths/min of 15% O2-6% CO2-79% N2 to achieve a perfusate pH of 7.33±0.01, PCO2 of 38.1±2.8 mmHg, and PO2 of 107.3±5.9 mmHg. The lungs were perfused in a humidified chamber (34-37° C.) in a recirculating manner with 150 ml of PSS containing (in mM) 118.3 NaCl, 4.7 KCl, 2.5 CaCl2, 1.2 MgSO4, 1.2 KH2PO4, 25.0 NaHCO3, 0.026 Na-EDTA, and 11.1 glucose (pH 7.4) to which hetastarch was added for maintenance of oncotic pressure. […] Pulmonary arterial (Ppa, inflow), pulmonary venous (Pla, outflow), and airway pressures were recorded continuously. Microvascular pressure (Pmv) was measured by the double occlusion method (Dawson C. A., et al., Journal of Applied Physiology 64: 274-284, 1988; Wurtz M. M., et al., J Appl Physiol 73: 2135-2141, 1992). […] Total PVR was calculated as (Ppa Pla)/perfusate flow rate. Arterial PVR was calculated as (Ppa Pmv)/perfusate flow rate, and venous PVR was calculated as (Pmv Pla)/perfusate flow rate (Stephenson A. H., et al., Am J Physiol 275: H100-H109, 1998).

[3] = system: rabbit intralobar pulmonary arteries; experiment: Inhibition of agonist-induced vasoconstriction in rabbit intralobar pulmonary artery rings (ring tension); settings: compound at 10 μM; for inhibition of 5,6-EET-induced vasoconstriction (concentration-response curve shifted to the right): 5,6-EET 1×10^−8-1×10^−5 M, rabbit PA rings
Description: To obtain the pulmonary arteries used in the study, adult New Zealand white rabbits (2.4-3.0 kg) were anesthetized with pentobarbital sodium (15 mg/kg iv) for 10 minutes after intramuscular administration of ketamine (8 mg/kg) and xylazine (2 mg/kg). A tracheostomy was performed and a tracheal cannula was inserted. The animals were ventilated via a fixed volume ventilator (Harvard) with room air (tidal volume: 8-10 ml/kg at 15 cycles/min). A catheter was inserted into a carotid artery for administration of heparin (1,000 units, iv) 10 minutes before exsanguination of the animal. After exsanguination, the lungs were removed for isolation of the pulmonary vessels. Intralobar, second order pulmonary arteries (PA) were obtained as described previously (Stephenson A. H., et al., American Journal of Physiology 284: H2153-H2161, 2003). Briefly, intralobar PA (1-2 mm OD) were dissected free of extravascular tissue, cut into rings 3-4 mm in length and suspended in water-jacketed tissue chambers containing 10 ml of a physiological salt solution (PSS) composed of (in mM): NaCl (118.3), KCl (4.7), CaCl2 (2.5), MgS04 (1.2), KH2P04 (1.2), NaHC03 (25) Na-EDTA (0.026), and glucose (11.1). The PSS was gassed with 95% O2-5% CO2 (pH: 7.4) and maintained at 37° C. Each ring was mounted between two stainless steel support wires. Ring tension was measured from one of the support wires attached to an isometric force transducer (FT03, Grass) and recorded continuously on a polygraph (Grass). Each ring was placed under a basal (passive) tension (0.75 to 1.5 g) determined to result in a maximal contractile response to KCl (60 mM). In some studies, basal tension was increased with 25 mM KCl to achieve a submaximal increase in active tension. At basal tension, concentrations of 5,6-EET (1×10^−8-1×10^−5 M, delivered in 1 μl of absolute ethanol) were added individually or cumulatively to the rings in 10 ml PSS. Total ethanol concentration in the tissue chambers never exceeded 0.1%. In these experiments, 5,6-EET was added in the presence or absence of the selective 5,6-EET inhibitors 13-HTEC (10 μM) and 14-HTYC (10 μM). […] PA rings were also exposed to various concentrations of PGF2α, (Sigma Chemical Company, St. Louis, Mo.), 14,15-EET (Cayman Chemical, Ann Arbor, Mich.), 5-hydroxytryptamine (5-HT) (Sigma Chemical Company, St. Louis, Mo.), and norepinephrine (NE) (Sigma Chemical Company, St. Louis, Mo.).

mice = settings: Pokreisz et al. 2006; cited from earlier work

CCCCCC1OC1CCCCCCC/C=C\CCCC(=O)O (stereo not shown) [14,15-EEZE, 14,15-epoxyeicosa-5(Z)-enoic acid]
effect on vasoconstrictor activity of exogenously administered 5,6-EET (concentration-response curve shifted to the left) [1]: significantly promoted or agonized

CCCCCCCOCCCCCCC/C=C\CCCC(=O)O [Compound 13-HTEC, 13-heptyloxytridec-5(Z)-enoic acid]
effect on pulmonary arterial inflow (Ppa) pressure / hypoxia-induced vasoconstriction [2]: hypoxia-induced vasoconstriction is reduced; also recorded: significantly decreased
inhibition of 5-hydroxytryptamine (5-HT)-mediated vasoconstriction of PA [3]: is not inhibited; also recorded: does not inhibit
inhibition of 14,15-EET-mediated vasoconstriction of PA [3]: is not inhibited; also recorded: does not inhibit
inhibition of PGF2α-mediated vasoconstriction of PA [3]: is not inhibited; also recorded: does not inhibit
inhibition of norepinephrine (NE)-mediated vasoconstriction of PA [3]: Minimal effects; also recorded: may have partially inhibited
inhibition of 5,6-EET-induced vasoconstriction (concentration-response curve shifted to the right) [3]: specifically inhibit; also recorded: significantly inhibited

CCCCCCOCCCCCCCCC#CCCCC(=O)O [Compound 14-HTYC, 14-(hexyloxy)tetradec-5-ynoic acid]
inhibition of 5,6-EET-induced vasoconstriction (concentration-response curve shifted to the right) [3]: specifically inhibit

C#CCOc1ccccc1CCCCCC(=O)NS(C)(=O)=O [MSPPOH, N-methyl sulfonyl-6-(2-propargyloxyphenyl)hexanamide]
effect on acute hypoxia-induced pulmonary hypertension (mice): significantly reduced
effect on chronic hypoxia-induced pulmonary vascular remodeling (mice): significantly reduced
